Measurements reported in patent US11312713B2, “Imidazo[4,5-C]quinoline derivatives as LRRK2 inhibitors” (Pfizer Inc., priority 2017, dated 2022).
Like-named read-outs stand apart in the source and are kept apart here.

What was measured:
[1] = target: LRRK2, WT (GST-tagged truncated LRRK2) (Homo sapiens, UniProt Q5S007); test: LRRK2 kinase assay (LanthaScreen), wild type; type: biochemical
Outline: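 GST-tagged truncated enzyme (2 μg/mL) phosphorylates 100 nM fluorescein-LRRKtide with 1 mM ATP in HEPES pH 7.5, 3 mM MgCl2, DTT, Brij35; 30 min, room temperature, compound dose response top 3 μM. Stopped with EDTA; phospho-ERM detected by terbium anti-phospho-ERM TR-FRET; identical conditions for both enzymes.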

[2] = target: mutant G2019S LRRK2 (Homo sapiens (Human), UniProt Q5S007, G2019S); test: LRRK2 kinase assay (LanthaScreen), G2019S mutant; type: biochemical
Chain of mutant G2019S LRRK2 (Q5S007 whole entry G2019S, the tested form may be a part): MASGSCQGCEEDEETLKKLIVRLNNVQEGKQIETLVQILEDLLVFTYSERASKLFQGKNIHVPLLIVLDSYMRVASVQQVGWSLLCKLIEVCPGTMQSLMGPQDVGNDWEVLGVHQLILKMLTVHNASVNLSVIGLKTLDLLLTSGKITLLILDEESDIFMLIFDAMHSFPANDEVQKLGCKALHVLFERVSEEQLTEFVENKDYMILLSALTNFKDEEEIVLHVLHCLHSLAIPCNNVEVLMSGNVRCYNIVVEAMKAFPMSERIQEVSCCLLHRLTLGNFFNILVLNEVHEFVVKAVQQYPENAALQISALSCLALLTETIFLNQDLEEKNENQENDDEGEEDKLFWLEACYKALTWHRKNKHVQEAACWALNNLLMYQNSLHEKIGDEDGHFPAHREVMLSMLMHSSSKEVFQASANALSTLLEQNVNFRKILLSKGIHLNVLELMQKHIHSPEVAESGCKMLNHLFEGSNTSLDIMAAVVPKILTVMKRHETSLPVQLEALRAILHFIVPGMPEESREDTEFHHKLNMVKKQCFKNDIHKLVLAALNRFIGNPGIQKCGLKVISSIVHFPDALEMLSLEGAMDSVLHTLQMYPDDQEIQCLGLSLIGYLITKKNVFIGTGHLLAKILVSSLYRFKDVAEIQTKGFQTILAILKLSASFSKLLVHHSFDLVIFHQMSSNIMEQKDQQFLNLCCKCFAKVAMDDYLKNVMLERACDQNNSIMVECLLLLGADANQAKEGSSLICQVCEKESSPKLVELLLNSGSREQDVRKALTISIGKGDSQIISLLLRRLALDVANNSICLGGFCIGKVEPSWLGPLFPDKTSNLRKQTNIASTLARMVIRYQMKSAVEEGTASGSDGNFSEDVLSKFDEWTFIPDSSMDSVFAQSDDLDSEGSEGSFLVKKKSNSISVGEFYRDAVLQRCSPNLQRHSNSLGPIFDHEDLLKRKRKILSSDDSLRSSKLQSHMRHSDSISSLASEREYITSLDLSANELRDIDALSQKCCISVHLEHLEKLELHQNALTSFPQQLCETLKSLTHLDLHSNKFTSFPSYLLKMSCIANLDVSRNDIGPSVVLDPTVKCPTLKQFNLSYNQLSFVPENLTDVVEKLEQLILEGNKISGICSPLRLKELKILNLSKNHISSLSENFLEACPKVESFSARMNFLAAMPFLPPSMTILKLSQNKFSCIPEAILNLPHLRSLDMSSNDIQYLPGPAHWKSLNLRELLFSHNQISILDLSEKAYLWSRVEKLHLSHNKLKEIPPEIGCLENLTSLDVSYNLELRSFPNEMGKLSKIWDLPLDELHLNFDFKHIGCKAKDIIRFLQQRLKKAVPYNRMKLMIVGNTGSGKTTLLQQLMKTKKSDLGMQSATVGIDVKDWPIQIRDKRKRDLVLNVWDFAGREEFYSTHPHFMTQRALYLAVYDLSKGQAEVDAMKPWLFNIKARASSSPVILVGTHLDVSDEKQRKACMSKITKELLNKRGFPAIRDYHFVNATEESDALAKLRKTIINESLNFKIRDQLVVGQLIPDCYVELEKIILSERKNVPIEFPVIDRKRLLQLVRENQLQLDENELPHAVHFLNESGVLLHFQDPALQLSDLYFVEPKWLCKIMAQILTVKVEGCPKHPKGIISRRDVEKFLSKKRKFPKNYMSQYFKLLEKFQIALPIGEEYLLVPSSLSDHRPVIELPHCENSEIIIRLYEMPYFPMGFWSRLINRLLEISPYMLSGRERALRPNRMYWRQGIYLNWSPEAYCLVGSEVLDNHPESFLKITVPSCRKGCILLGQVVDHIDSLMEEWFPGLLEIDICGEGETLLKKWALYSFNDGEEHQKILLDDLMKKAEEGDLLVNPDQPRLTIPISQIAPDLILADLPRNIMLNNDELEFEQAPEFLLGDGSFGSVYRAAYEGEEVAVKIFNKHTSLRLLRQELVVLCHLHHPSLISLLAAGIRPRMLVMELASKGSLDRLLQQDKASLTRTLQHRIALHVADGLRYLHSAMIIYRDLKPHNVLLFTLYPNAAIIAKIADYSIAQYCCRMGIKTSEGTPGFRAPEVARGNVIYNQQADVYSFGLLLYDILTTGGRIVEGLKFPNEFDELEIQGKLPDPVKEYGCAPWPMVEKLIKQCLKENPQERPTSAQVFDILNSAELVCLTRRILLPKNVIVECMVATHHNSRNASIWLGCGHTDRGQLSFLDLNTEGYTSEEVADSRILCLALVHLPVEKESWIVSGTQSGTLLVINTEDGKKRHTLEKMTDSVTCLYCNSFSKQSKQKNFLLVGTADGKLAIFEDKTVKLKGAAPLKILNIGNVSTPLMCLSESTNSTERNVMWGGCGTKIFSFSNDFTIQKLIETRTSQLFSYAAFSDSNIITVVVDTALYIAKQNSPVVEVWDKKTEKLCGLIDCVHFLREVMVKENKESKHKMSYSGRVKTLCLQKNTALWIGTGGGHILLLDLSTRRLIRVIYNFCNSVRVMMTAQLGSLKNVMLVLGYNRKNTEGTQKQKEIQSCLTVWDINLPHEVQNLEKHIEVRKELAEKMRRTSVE
Procedure: LRRK2 kinase activity was measured using Lantha Screen technology from Invitrogen. GST-tagged truncated LRRK2 from Invitrogen (Cat #PV4874) was incubated with a fluorescein-labeled peptide substrate based upon ezrin/radixin/moesin (ERM), also known as LRRKtide (Invitrogen cat #PR8976A), in the presence of a dose response of compound. Upon completion, the assay was stopped and detected with a terbium labeled anti-phospho-ERM antibody (Invitrogen, cat #PR8975A). […] Using Echo acoustic dispensing, 60 nL of compound was transferred to a low volume Corning 384-well assay plate. 3 μL of a working solution of substrate (200 nM LRRKtide, 2 mM ATP) prepared in assay buffer (50 mM HEPES, pH 7.5, 3 mM MgCl2, with 2 mM DTT and 0.01% Brij35 added fresh) was added to the 60 nL compound assay plate. The kinase reaction was started with 3 μL of a working solution of LRRK2 enzyme at a concentration of 4 μg/m L. The final reaction concentrations were 100 nM LRRKtide, 1 mM ATP, 2 μg/mL LRRK2 enzyme and a compound dose response with a top dose of 3 μM. The reaction was allowed to progress at room temperature for 30 minutes and then stopped with the addition of 6 μL of detection buffer (20 mM Tris pH 7.6, 0.01% NP-40, 6 mM EDTA with 2 nM terbium labeled antiphospho-ERM). […] All final concentrations of substrate ATP and enzyme were the same.

[3] = wild type LRRK2, LanthaScreen, LRRKtide substrate
[4] = G2019S mutant LRRK2, LanthaScreen, LRRKtide substrate, read-out: LRRK2, G2019S IC50

| SMILES | IC50 [1, 3] | IC50 [2, 4] | other results |
| --- | --- | --- | --- |
| Cc1cn(Cc2nc3cnc4ccc(Cl)cc4c3n2C2CN(C)CC2(F)F)nn1 (centres unmarked) [Example 48, 8-chloro-1-(4,4-difluoro-1-methylpyrrolidin-3-yl)-2-[(4-methyl-1H-1,2,3-triazol-1-yl)methyl]-1H-imidazo[4,5-c]quinoline] | 3.27 nM | 0.938 nM |  |
| Cc1cnc(Cc2nc3cnc4ccc(C#N)cc4c3n2[C@@H]2CCN(C)C2)cn1 [Example 33, 2-[(5-methylpyrazin-2-yl)methyl]-1-[(3R)-1-methylpyrrolidin-3-yl]-1H-imidazo[4,5-c]quinoline-8-carbonitrile] |  |  | IC50 ([1]; wild type LRRK2, data obtained using the formate salt of the Example): 8.35 nM; IC50 ([2]; G2019S mutant LRRK2, data obtained using the formate salt of the Example, read-out: LRRK2, G2019S IC50): 6.82 nM |
| Cc1cn(Cc2nc3cnc4ccc(Cl)cc4c3n2C2CCOCC2(F)F)nn1 (stereo not drawn) [enantiomer of Example 46, 8-chloro-1-(3,3-difluorotetrahydro-2H-pyran-4-yl)-2-[(4-methyl-1H-1,2,3-triazol-1-yl)methyl]-1H-imidazo[4,5-c]quinoline] |  |  | IC50 ([1]; LanthaScreen, LRRKtide substrate, 1 mM ATP): 21.4 nM; IC50 ([2]; LanthaScreen, LRRKtide substrate, 1 mM ATP, read-out: LRRK2, G2019S mutant IC50): 16.1 nM |
| Cc1nc(Cc2nc3cnc4ccc(Cl)cc4c3n2C2CN(C)CC2(F)F)no1 (centres unmarked) [Example 88, 8-chloro-1-(4,4-difluoro-1-methylpyrrolidin-3-yl)-2-[(5-methyl-1,2,4-oxadiazol-3-yl)methyl]-1H-imidazo[4,5-c]quinoline] | 9.25 nM | 8.16 nM |  |
| Cc1cn(Cc2nc3cnc4ccc(Cl)cc4c3n2C2CN(C)CC2(F)F)nn1 (centres unmarked) [Example 82, 8-chloro-1-(4,4-difluoro-1-methylpyrrolidin-3-yl)-2-[(4-methyl-1H-1,2,3-triazol-1-yl)methyl]-1H-imidazo[4,5-c]quinoline] | 6.33 nM | 4.64 nM |  |
| COc1cnn(Cc2nc3cnc4ccc(Cl)cc4c3n2CC(C)(F)F)c1 [Example 72, 8-chloro-1-(2,2-difluoropropyl)-2-[(4-methoxy-1H-pyrazol-1-yl)methyl]-1H-imidazo[4,5-c]quinoline] | 12.1 nM | 7.17 nM |  |
| Cc1nn2cc(Cc3nc4cnc5ccc(F)cc5c4n3[C@@H]3CCO[C@H](C)C3)nc2s1 [Example 28, 8-fluoro-2-[(2-methylimidazo[2,1-b][1,3,4]thiadiazol-6-yl)methyl]-1-[(2R,4R)-2-methyltetrahydro-2H-pyran-4-yl]-1H-imidazo[4,5-c]quinoline] | 7.18 nM | 4.59 nM |  |
| C[C@@H]1C[C@H](n2c(Cc3csnn3)nc3cnc4ccc(C(F)(F)F)cc4c32)CCO1 [Example 63, 1-[(2R,4R)-2-methyltetrahydro-2H-pyran-4-yl]-2-(1,2,3-thiadiazol-4-ylmethyl)-8-(trifluoromethyl)-1H-imidazo[4,5-c]quinoline] | 6.96 nM | 3.04 nM |  |
| Cc1nc(Cc2nc3cnc4ccc(Cl)cc4c3n2C2CCOCC2(F)F)no1 (centres unmarked) [Example 75] | 25.7 nM | 26.5 nM |  |

The next lines start with results.

| IC50 [1, 3] | IC50 [2, 4] | SMILES | other results |
| --- | --- | --- | --- |
| 6.46 nM | 6.48 nM | Cc1nc(Cc2nc3cnc4ccc(C#N)cc4c3n2[C@@H]2CCN(CC(F)(F)F)C2)no1 [Example 56, 2-[(5-methyl-1,2,4-oxadiazol-3-yl)methyl]-1-[(3R)-1-(2,2,2-trifluoroethyl)pyrrolidin-3-yl]-1H-imidazo[4,5-c]quinoline-8-carbonitrile] |  |
| 5.53 nM | 5.04 nM | Cc1nnn(Cc2nc3cnc4ccc(C#N)cc4c3n2[C@@H]2CCN(C)C2)n1 [Example 34, 1-[(3R)-1-methylpyrrolidin-3-yl]-2-[(5-methyl-2H-tetrazol-2-yl)methyl]-1H-imidazo [4,5-c]quinoline-8-carbonitrile] |  |
| 9.73 nM | 13.9 nM | Cc1cc(Cc2nc3cnc4ccc(Cl)cc4c3n2[C@@H]2CCN(C)C2)ncn1 [Example 40, 8-chloro-2-[(6-methylpyrimidin-4-yl)methyl]-1-[(3R)-1-methylpyrrolidin-3-yl]-1H-imidazo[4,5-c]quinoline] |  |
| 12.9 nM | 26 nM | Cc1nc(Cc2nc3cnc4ccc(Cl)cc4c3n2[C@@H]2CCN(C)C2)no1 [Example 42, 8-chloro-2-[(5-methyl-1,2,4-oxadiazol-3-yl)methyl]-1-[(3R)-1-methylpyrrolidin-3-yl]-1H-imidazo[4,5-c]quinoline] |  |
